Target: SMARCA2 (Homo sapiens (Human), UniProt P51531)
Assay: SMARCA2 HiBiT degradation assay in HEK293T cells
Type: cell-based
Conditions: 293T HiBiT assay, 24 h; for DC50: read-out: DC50 (SM2-293T) SMARCA2 degradation potency; for Dmax: HEK-293T, read-out: Dmax % (SM2-293T) maximum SMARCA2 degradation within the concentrations tested
Description: HiBiT peptide knock-in of SMARCA2 in LgBiT expressing HEK293T cells was performed by CRISPR-mediated tagging system as described Promega. The homozygous HiBiT knock-in on c-terminus SMARCA2 was confirmed by sanger sequence. SMARCA2-HiBiT knock-in Hela monoclonal cell (CS302366) and SMARCA4-HiBiT knock-in Hela monoclonal cell (CS3023226) were purchased from Promega. The heterozygous HiBiT-knock-in was confirmed by sanger sequence in both SMARCA2-HiBiT and SMARCA4-HiBiT monoclonal cells. Compounds were prepared in a low dead volume plate at 3-fold serial dilution, and then transferred 25 nL/well into a 384 well plate (Corning: #356661) by Agilent Bravo liquid dispenser. SMARCA2-HiBiT monoclonal HEK293T cells were added at 5,000/well/25 uL into the compound containing 384 well plate. After 24 h incubation, 25 uL/well of Nano-Glo HiBiT Lytic detection buffer (Promega: N3050) was added to the wells and incubate for 10 min on a shaker, centrifuged for 5 min, and then RLU was detected on a microplate reader (Envision, PerkinElmer). The RLU ratio values are normalized to percent inhibition as follows: % inhibition=((HC−LC)−(compound−LC))/(HC−LC))*100, where HC=high control=mean signal of DMSO only; LC=low control=mean signal of 100% inhibition of RLU by 1 μM PRT1001728. An 11-point dose response curve for each compound will be generated using normalized % inhibition to determine IC50 values based on the equation: Y=Bottom+((Top-Bottom)/(1+((IC50/X)^Slope))), where Y is the % inhibition in the presence of X inhibitor concentration; Top=the top plateau of the curve; Bottom=the bottom plateau of the curve; Slope=Hill coefficient; DC50=concentration of compound with 50% degradation in relation to top/high control. DC50 values were determined by using XLfit Model 205.

Chain of SMARCA2 (P51531 whole entry): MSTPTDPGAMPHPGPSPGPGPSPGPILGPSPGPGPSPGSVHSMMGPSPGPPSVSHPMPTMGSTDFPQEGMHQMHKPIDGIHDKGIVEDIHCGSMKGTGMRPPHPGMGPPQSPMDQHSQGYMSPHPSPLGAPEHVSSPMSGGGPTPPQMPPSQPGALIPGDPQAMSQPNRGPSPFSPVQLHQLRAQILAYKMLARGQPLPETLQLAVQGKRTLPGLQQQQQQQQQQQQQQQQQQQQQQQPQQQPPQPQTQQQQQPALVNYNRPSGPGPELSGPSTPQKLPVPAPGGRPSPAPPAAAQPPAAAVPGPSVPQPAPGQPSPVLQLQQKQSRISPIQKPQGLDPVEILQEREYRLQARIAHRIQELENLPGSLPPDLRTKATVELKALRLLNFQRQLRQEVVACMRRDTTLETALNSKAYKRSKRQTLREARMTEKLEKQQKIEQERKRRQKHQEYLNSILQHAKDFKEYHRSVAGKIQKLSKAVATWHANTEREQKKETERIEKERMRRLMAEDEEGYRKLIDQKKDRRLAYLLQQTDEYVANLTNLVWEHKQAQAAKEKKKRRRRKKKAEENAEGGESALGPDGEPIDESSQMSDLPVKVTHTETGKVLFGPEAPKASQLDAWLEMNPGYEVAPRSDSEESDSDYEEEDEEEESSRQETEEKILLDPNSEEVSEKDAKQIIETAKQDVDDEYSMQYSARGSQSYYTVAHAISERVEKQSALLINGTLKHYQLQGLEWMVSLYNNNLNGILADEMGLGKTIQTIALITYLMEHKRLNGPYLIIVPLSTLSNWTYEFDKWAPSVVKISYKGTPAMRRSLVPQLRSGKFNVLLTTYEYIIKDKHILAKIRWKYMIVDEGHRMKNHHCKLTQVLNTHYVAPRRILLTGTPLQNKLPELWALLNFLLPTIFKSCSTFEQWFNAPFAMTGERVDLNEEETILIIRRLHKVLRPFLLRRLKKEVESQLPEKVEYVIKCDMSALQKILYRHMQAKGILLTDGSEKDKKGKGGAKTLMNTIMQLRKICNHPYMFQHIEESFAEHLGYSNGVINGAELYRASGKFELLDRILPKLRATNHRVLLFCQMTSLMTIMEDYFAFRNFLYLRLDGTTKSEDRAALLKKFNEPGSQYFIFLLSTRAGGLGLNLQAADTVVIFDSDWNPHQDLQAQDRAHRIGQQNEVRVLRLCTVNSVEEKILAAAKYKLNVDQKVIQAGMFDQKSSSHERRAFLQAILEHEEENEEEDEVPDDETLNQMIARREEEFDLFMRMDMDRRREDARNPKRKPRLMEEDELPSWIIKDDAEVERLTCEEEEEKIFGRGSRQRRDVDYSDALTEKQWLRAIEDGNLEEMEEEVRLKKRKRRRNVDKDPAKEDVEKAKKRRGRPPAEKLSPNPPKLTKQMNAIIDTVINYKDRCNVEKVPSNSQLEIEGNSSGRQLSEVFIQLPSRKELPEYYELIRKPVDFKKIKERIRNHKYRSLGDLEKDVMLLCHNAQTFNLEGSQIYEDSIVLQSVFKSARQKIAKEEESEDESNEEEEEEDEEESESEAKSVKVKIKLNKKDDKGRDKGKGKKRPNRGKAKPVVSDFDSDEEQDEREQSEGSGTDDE

Row | DC50 | Dmax | Compound
1 | < 100 nM | – | Cc1ncsc1-c1ccc([C@H](C)NC(=O)[C@@H]2C[C@@H](O)CN2C(=O)[C@@H](c2cc(OC(C)CN3CCCC(CN4CCN5c6cc(-c7ccccc7O)nnc6NC[C@H]5C4)C3)no2)C(C)C)cc1 (stereo partly drawn) [Example 24, (2S,4R)-4-hydroxy-1-((2R)-2-(3-((1-(3-(((S)-2-(2-hydroxyphenyl)-5,6,6a,7,9,10-hexahydro-8H-pyrazino[1′,2′:4,5]pyrazino[2,3-c]pyridazin-8-yl)methyl)piperidin-1-yl)propan-2-yl)oxy)isoxazol-5-yl)-3-methylbutanoyl)-N-((S)-1-(4-(4-methylthiazol-5-yl)phenyl)ethyl)pyrrolidine-2-carboxamide]
2 | 100 to 1000 nM | > 75% | Cc1ncsc1-c1ccc([C@H](C)NC(=O)[C@@H]2C[C@@H](O)CN2C(=O)[C@@H](NC(=O)COCCN2CCN3c4cc(-c5ccccc5O)nnc4NCC3C2)C(C)(C)C)cc1 (stereo partly drawn) [Example 65, (2S,4R)-4-hydroxy-1-((2S)-2-(2-(2-(2-(2-hydroxyphenyl)-5,6,6a,7,9,10-hexahydro-8H-pyrazino[1′,2′:4,5]pyrazino[2,3-c]pyridazin-8-yl)ethoxy)acetamido)-3,3-dimethylbutanoyl)-N-((S)-1-(4-(4-methylthiazol-5-yl)phenyl)ethyl)pyrrolidine-2-carboxamide]
3 | < 100 nM | > 75% | Cc1ncsc1-c1ccc([C@H](C)NC(=O)[C@@H]2C[C@@H](O)CN2C(=O)[C@@H](c2cc(CN3CCC(N4CCN5c6cc(-c7ccccc7O)nnc6NC[C@H]5C4)CC3)no2)C(C)C)cc1 [Example 39, (2S,4R)-4-hydroxy-1-((R)-2-(3-((4-((S)-2-(2-hydroxyphenyl)-5,6,6a,7,9,10-hexahydro-8H-pyrazino[1′,2′:4,5]pyrazino[2,3-c]pyridazin-8-yl)piperidin-1-yl)methyl)isoxazol-5-yl)-3-methylbutanoyl)-N-((S)-1-(4-(4-methylthiazol-5-yl)phenyl)ethyl)pyrrolidine-2-carboxamide]
4 | < 100 nM | > 75% | Cc1ncsc1-c1ccc([C@H](C)NC(=O)[C@@H]2C[C@@H](O)CN2C(=O)[C@@H](c2cc(OCCN3CCC(CN4CCN5c6cc(-c7ccccc7O)nnc6NC[C@H]5C4)C(C)(C)C3)no2)C(C)C)cc1 (stereo partly drawn) [Example 87, (2S,4R)-4-hydroxy-1-((2R)-2-(3-(2-(4-(((S)-2-(2-hydroxyphenyl)-5,6,6a,7,9,10-hexahydro-8H-pyrazino[1′,2′:4,5]pyrazino[2,3-c]pyridazin-8-yl)methyl)-3,3-dimethylpiperidin-1-yl)ethoxy)isoxazol-5-yl)-3-methylbutanoyl)-N-((S)-1-(4-(4-methylthiazol-5-yl)phenyl)ethyl)pyrrolidine-2-carboxamide]
5 | < 100 nM | > 75% | Cc1ncsc1-c1ccc([C@H](C)NC(=O)[C@@H]2C[C@@H](O)CN2C(=O)[C@@H](c2cc(OCCN3CCC(CN4CCN5c6cc(-c7ccccc7O)nnc6NC[C@H]5C4)CC3)no2)C(C)C)c(F)c1 [Example 36, (2S,4R)-N-((S)-1-(2-fluoro-4-(4-methylthiazol-5-yl)phenyl)ethyl)-4-hydroxy-1-((R)-2-(3-(2-(4-(((S)-2-(2-hydroxyphenyl)-5,6,6a,7,9,10-hexahydro-8H-pyrazino[1′,2′:4,5]pyrazino[2,3-c]pyridazin-8-yl)methyl)piperidin-1-yl)ethoxy)isoxazol-5-yl)-3-methylbutanoyl)pyrrolidine-2-carboxamide]
6 | < 100 nM | > 75% | Cc1ncsc1-c1ccc([C@H](C)NC(=O)[C@@H]2C[C@@H](O)CN2C(=O)[C@@H](c2cc(CCCN3CCC(N4CCN5c6cc(-c7ccccc7O)nnc6NC[C@H]5C4)CC3)no2)C(C)C)cc1 [Example 33, (2S,4R)-4-hydroxy-1-((R)-2-(3-(3-(4-((S)-2-(2-hydroxyphenyl)-5,6,6a,7,9,10-hexahydro-8H-pyrazino[1′,2′:4,5]pyrazino[2,3-c]pyridazin-8-yl)piperidin-1-yl)propyl)isoxazol-5-yl)-3-methylbutanoyl)-N-((S)-1-(4-(4-methylthiazol-5-yl)phenyl)ethyl)pyrrolidine-2-carboxamide]
7 | < 100 nM | > 75% | Cc1ncsc1-c1ccc([C@H](C)NC(=O)[C@@H]2C[C@@H](O)CN2C(=O)[C@@H](NC(=O)CN2CCC(N3CCN4c5cc(-c6ccccc6O)nnc5NC[C@@H]4C3)CC2)C(C)(C)C)cc1 [Example 79, (2S,4R)-4-hydroxy-1-((S)-2-(2-(4-((R)-2-(2-hydroxyphenyl)-5,6,6a,7,9,10-hexahydro-8H-pyrazino[1′,2′:4,5]pyrazino[2,3-c]pyridazin-8-yl)piperidin-1-yl)acetamido)-3,3-dimethylbutanoyl)-N-((S)-1-(4-(4-methylthiazol-5-yl)phenyl)ethyl)pyrrolidine-2-carboxamide]
8 | 100 to 1000 nM | > 75% | Cc1ncsc1-c1ccc([C@H](C)NC(=O)[C@@H]2C[C@@H](O)CN2C(=O)[C@H](NC(=O)OCCN2CCN3c4cc(-c5ccccc5O)nnc4NCC3C2)C(C)(C)C)cc1 (stereo partly drawn) [Example 7, 2-(2-(2-hydroxyphenyl)-5,6,6a,7,9,10-hexahydro-8H-pyrazino[1′,2′:4,5]pyrazino[2,3-c]pyridazin-8-yl)ethyl ((R)-1-((2S,4R)-4-hydroxy-2-(((S)-1-(4-(4-methylthiazol-5-yl)phenyl)ethyl)carbamoyl)pyrrolidin-1-yl)-3,3-dimethyl-1-oxobutan-2-yl)carbamate]
9 | < 100 nM | > 75% | Cc1ncsc1-c1ccc([C@H](C)NC(=O)[C@@H]2C[C@@H](O)CN2C(=O)[C@@H](c2cc(OCCN3CCC(CCN4CCC(N5CCN6c7cc(-c8ccccc8O)nnc7NC[C@H]6C5)CC4)CC3)no2)C(C)C)cc1 [Example 22, (2S,4R)-4-hydroxy-1-((R)-2-(3-(2-(4-(2-(4-((S)-2-(2-hydroxyphenyl)-5,6,6a,7,9,10-hexahydro-8H-pyrazino[1′,2′:4,5]pyrazino[2,3-c]pyridazin-8-yl)piperidin-1-yl)ethyl)piperidin-1-yl)ethoxy)isoxazol-5-yl)-3-methylbutanoyl)-N-((S)-1-(4-(4-methylthiazol-5-yl)phenyl)ethyl)pyrrolidine-2-carboxamide]
10 | < 100 nM | > 75% | Cc1ncsc1-c1ccc([C@H](C)NC(=O)[C@@H]2C[C@@H](O)CN2C(=O)[C@@H](c2cc(OC3CCN(CCCN4CCN5c6cc(-c7ccccc7O)nnc6NC[C@H]5C4)C3)no2)C(C)C)cc1 (stereo partly drawn) [Example 83, (2S,4R)-4-hydroxy-1-((2R)-2-(3-((1-(3-((S)-2-(2-hydroxyphenyl)-5,6,6a,7,9,10-hexahydro-8H-pyrazino[1′,2′:4,5]pyrazino[2,3-c]pyridazin-8-yl)propyl)pyrrolidin-3-yl)oxy)isoxazol-5-yl)-3-methylbutanoyl)N-((S)-1-(4-(4-methylthiazol-5-yl)phenyl)ethyl)pyrrolidine-2-carboxamide]
11 | < 100 nM | – | Cc1ncsc1-c1ccc([C@H](C)NC(=O)[C@@H]2C[C@@H](O)CN2C(=O)[C@@H](c2cc(CCCN3CCCC(CN4CCN5c6cc(-c7ccccc7O)nnc6NC[C@H]5C4)C3)no2)C(C)C)cc1 (single isomer, unassigned) [Example 89]

Row | Compound | DC50 | Dmax
12 | Cc1ncsc1-c1ccc([C@H](C)NC(=O)[C@@H]2C[C@@H](O)CN2C(=O)[C@@H](c2cc(OCCN3CCC(CN4CCN5c6cc(-c7ccccc7O)nnc6NC[C@H]5C4)C3)no2)C(C)C)cc1 (stereo partly drawn) [Example 15, (2S,4R)-4-hydroxy-1-((2R)-2-(3-(2-(3-(((S)-2-(2-hydroxyphenyl)-5,6,6a,7,9,10-hexahydro-8H-pyrazino[1′,2′:4,5]pyrazino[2,3-c]pyridazin-8-yl)methyl)pyrrolidin-1-yl)ethoxy)isoxazol-5-yl)-3-methylbutanoyl)-N-((S)-1-(4-(4-methylthiazol-5-yl)phenyl)ethyl)pyrrolidine-2-carboxamide] | < 100 nM | > 75%
13 | Cc1ncsc1-c1ccc([C@H](C)NC(=O)[C@@H]2C[C@@H](O)CN2C(=O)[C@@H](c2cc(OCCN3C4CCC3CC(CN3CCN5c6cc(-c7ccccc7O)nnc6NCC5C3)C4)no2)C(C)C)cc1 (stereo partly drawn) [Example 78, (2S,4R)-4-hydroxy-1-((2R)-2-(3-(2-(3-((2-(2-hydroxyphenyl)-5,6,6a,7,9,10-hexahydro-8H-pyrazino[1′,2′:4,5]pyrazino[2,3-c]pyridazin-8-yl)methyl)-8-azabicyclo[3.2.1]octan-8-yl)ethoxy)isoxazol-5-yl)-3-methylbutanoyl)-N-((S)-1-(4-(4-methylthiazol-5-yl)phenyl)ethyl)pyrrolidine-2-carboxamide] | < 100 nM | > 75%

Reference: patent US20240018158A1, “BRM TARGETING COMPOUNDS AND ASSOCIATED METHODS OF USE” (Prelude Therapeutics Incorporated, priority 2020, published 2024)
